Experimental data: patent US12662482B2 (The Johns Hopkins University, priority 2020, dated 2026)
Where a name gives a salt, the structure may show the parent alone.

test system: RPA194; experiment: RPA194 destruction / Pol I inhibition, high-content imaging in A375 cells; type: cell-based; details: A375 cells treated for 4 hours, anti-RPA194 immunofluorescence; pIC50 >= 5.02 deemed a Pol I inhibitor
Description: Cell culture: A375 cells (CRL-1619, ATCC) were grown in DMEM (GJBCO) supplemented with […] (GTBCO) in 5% CO2 at 37° C.
Cell treatment and Imaging: 18 hours post-seeding in cell carrier black 384-well plates (PerkinElmer) at 15 000 cells/well, A375 cells were treated for 4 hours with a positive control or test compounds (9 serial semi-log dilutions, top concentration 10 μM). Upon treatment A375 cells were (i) fixed for 15 min at RT with 4% of paraformaldehyde, (ii) permeabilized for 20 min at RT with 0.1-0.5% of NP-40, (iii) incubated with primary antibodies at 4° C.: anti-RPA194 (1:1000-1:1250 dilution, sc-48385, Santa Cruz Biotechnology) and anti-gH2Ax (1:5000 dilution, 81299, Abcam or 1:4000, JBW302, Millipore) (iv) incubated for 1 h at RT with Hoechst (1:5000 dilution, H3570, ThermoFisher) and secondary antibodies: anti-mouse-AlexaFluor488 (1:2000 dilution, A11001, ThermoFisher) and anti-rabbit-AlexaFluor647 (1:2000 dilution, A21443, ThermoFisher) or goat anti-mouse AlexaFluor-594 (1:1000 dilution). Images were acquired on an Operetta CLS High-Content Analysis System (PerkinElmer) (40× objective; 9 fields/well) and processed using the Columbus Image Analysis System (PerkinElmer) or by using Molecular Devices ImageXpress Micro XLS High Content Imager and MetaXpress high-content acquisition and analysis software.
In the table below, (+) is associated with a pIC50 5.02 to 5.8; (++) with pIC50 5.8 to 6.3; and (+++) with a pIC50 above 6.3.

Activity Range (pIC50)	SMILES
+++ ((+++) with a pIC50 above 6.3)	C[C@H](CN1CC[C@@H](O)C1)NC(=O)c1cccn2c(=O)c3ccc4ccccc4c3nc12 [Example 31, N-((R)-1-((R)-3-hydroxypyrrolidin-1-yl)propan-2-yl)-7-oxo-7H-benzo[h]pyrido[2,1-b]quinazoline-12-carboxamide hydrochloride]
+++ ((+++) with a pIC50 above 6.3)	CCN(C)CCNC(=O)c1cccn2c(=O)c3ccc4ccccc4c3nc12 [Example 18, N-(2-(ethyl(methyl)amino)ethyl)-7-oxo-7H-benzo[h]pyrido[2,1-blquinazoline-12-carboxamide hydrochloride]
++ ((++) with pIC50 5.8 to 6.3)	C[C@@H](CN1C[C@H](O)[C@@H](O)C1)NC(=O)c1cccn2c(=O)c3ccc4ccccc4c3nc12 [Example 26, N-((S)-1-((3S,4S)-3,4-dihydroxy-pyrrolidin-1-yl)propan-2-yl)-7-oxo-7H-benzo[h]pyrido[2,1-b]quinazoline-12-carboxamide hydrochloride]
+++ ((+++) with a pIC50 above 6.3)	O=C(NCCN1C[C@@H](O)[C@H](O)C1)c1cccn2c(=O)c3ccc4ccccc4c3nc12 [Example 7, N-(2-((3R,4R)-3,4-dihydroxy-pyrrolidin-1-yl)ethyl)-7-oxo-7H-benzo[h]pyrido[2,1-b]quinazoline-12-carboxamide hydrochloride]
++ ((++) with pIC50 5.8 to 6.3)	O=C(NCCN1CCCCC1)c1cccn2c(=O)c3ccc4ccccc4c3nc12 [Example 15, 7-oxo-N-(2-(piperidin-1-yl)ethyl)-7H-benzo[h]pyrido[2,1-b]quinazoline-12-carboxamide; hydrochloride]
+++ ((+++) with a pIC50 above 6.3)	O=C(NCCN1CC[C@H](O)C1)c1cccn2c(=O)c3ccc4ccccc4c3nc12 [Example 2, (S)-N-(2-(3-hydroxypyrrolidin-1-yl)ethyl)-7-oxo-7H-benzo[h]pyrido[2,1-b]quinazoline-12-carboxamide; hydrochloride]
++ ((++) with pIC50 5.8 to 6.3)	CNC(C)CNC(=O)c1cccn2c(=O)c3ccc4ccccc4c3nc12 (single isomer, unassigned) [Example 20, (R or S)-N-(2-(methylamino)propyl)-7-oxo-7H-benzo[h]pyrido[2,1-b]quinazoline-12-carboxamide; hydrochloride]
+++ ((+++) with a pIC50 above 6.3)	CNCCNC(=O)c1cccn2c(=O)c3ccc4ccccc4c3nc12 [Example 16, N-(2-(methylamino)ethyl)-7-oxo-7H-benzo[h]pyrido[2,1-b]quinazoline-12-carboxamide hydrochloride]
++ ((++) with pIC50 5.8 to 6.3)	CC1(C)CCN(CCNC(=O)c2cccn3c(=O)c4ccc5ccccc5c4nc23)C1 [Example 21, N-(2-(3,3-dimethylpyrrolidin-1-yl)ethyl)-7-oxo-7H-benzo[h]pyrido[2,1-b]quinazoline-12-carboxamide hydrochloride]
+++ ((+++) with a pIC50 above 6.3)	CO[C@H]1CCN(CCNC(=O)c2cccn3c(=O)c4ccc5ccccc5c4nc23)C1 [Example 23, (S)-N-(2-(3-methoxypyrrolidin-1-yl)ethyl)-7-oxo-7H-benzo[h]pyrido[2,1-b]quinazoline-12-carboxamide hydrochloride]
+++ ((+++) with a pIC50 above 6.3)	C[C@H](CN1CC[C@H](O)C1)NC(=O)c1cccn2c(=O)c3ccc4ccccc4c3nc12 [Example 30, N-((R)-1-((S)-3-hydroxypyrrolidin-1-yl)propan-2-yl)-7-oxo-7H-benzo[h]pyrido[2,1-b]quinazoline-12-carboxamide hydrochloride]
+++ ((+++) with a pIC50 above 6.3)	C[C@H](CN(C)C)NC(=O)c1cccn2c(=O)c3ccc4ccccc4c3nc12 [Example 14, (R)-N-(1-(dimethylamino)propan-2-yl)-7-oxo-7H-benzo[h]pyrido[2,1-b]quinazoline-12-carboxamide; hydrochloride]
++ ((++) with pIC50 5.8 to 6.3)	C[C@@H](CN(C)C)NC(=O)c1cccn2c(=O)c3ccc4ccccc4c3nc12 [Example 13, (S)-N-(1-(dimethylamino)propan-2-yl)-7-oxo-7H-benzo[h]pyrido[2,1-b]quinazoline-12-carboxamide; hydrochloride]
++ ((++) with pIC50 5.8 to 6.3)	CNC(C)CNC(=O)c1cccn2c(=O)c3ccc4ccccc4c3nc12 (single isomer, unassigned) [Example 19, (S or R)-N-(2-(methylamino)propyl)-7-oxo-7H-benzo[h]pyrido[2,1-b]quinazoline-12-carboxamide; hydrochloride]
++ ((++) with pIC50 5.8 to 6.3)	CO[C@@H]1CCN(CCNC(=O)c2cccn3c(=O)c4ccc5ccccc5c4nc23)C1 [Example 24, (R)-N-(2-(3-methoxypyrrolidin-1-yl)ethyl)-7-oxo-7H-benzo[h]pyrido[2,1-b]quinazoline-12-carboxamide hydrochloride]
+++ ((+++) with a pIC50 above 6.3)	C[C@H](CNC(=O)c1cccn2c(=O)c3ccc4ccccc4c3nc12)N(C)C [Example 11, (R)-N-(2-(dimethylamino)propyl)-7-oxo-7H-benzo[h]pyrido[2,1-b]quinazoline-12-carboxamide; hydrochloride]
++ ((++) with pIC50 5.8 to 6.3)	C[C@@H](CN1CC[C@H](O)C1)NC(=O)c1cccn2c(=O)c3ccc4ccccc4c3nc12 [Example 28, N-((S)-1-((S)-3-hydroxypyrrolidin-1-yl)propan-2-yl)-7-oxo-7H-benzo[h]pyrido[2,1-b]quinazoline-12-[(2S)-2-aminopropyl] pyrrolidin-3-ol; hydrochloride (165 mg, carboxamide hydrochloride]
++ ((++) with pIC50 5.8 to 6.3)	C[C@@H](CN1CC[C@@H](O)C1)NC(=O)c1cccn2c(=O)c3ccc4ccccc4c3nc12 [Example 29, N-((S)-1-((R)-3-hydroxypyrrolidin-1-yl)propan-2-yl)-7-oxo-7H-benzo[h]pyrido[2,1-b]quinazoline-12-carboxamide hydrochloride]

SMILES	Activity Range (pIC50)
CN1CC(CNC(=O)c2cccn3c(=O)c4ccc5ccccc5c4nc23)C1 [Example 37, N-((1-methylazetidin-3-yl)methyl)-7-oxo-7H-benzo[h]pyrido[2,1-b]quinazoline-12-carboxamide; hydrochloride]	+ ((+) is associated with a pIC50 5.02 to 5.8)
CCN(CC)CCNC(=O)c1cccn2c(=O)c3ccc4ccccc4c3nc12 [Example 12, N-(2-(diethylamino)ethyl)-7-oxo-7H-benzo[h]pyrido[2,1-b]quinazoline-12-carboxamide; hydrochloride]	++ ((++) with pIC50 5.8 to 6.3)
C[C@@H]1CCCN1CCNC(=O)c1cccn2c(=O)c3ccc4ccccc4c3nc12 [Example 35, (R)-N-(2-(2-methylpyrrolidin-1-yl)ethyl)-7-oxo-7H-benzo[h]pyrido[2,1-b]quinazoline-12-carboxamide; hydrochloride 1]	+ ((+) is associated with a pIC50 5.02 to 5.8)
O=C(NCCCN1CC2CCC(C1)O2)c1cccn2c(=O)c3ccc4ccccc4c3nc12 [Example 34, N-(3-(8-oxa-3-azabicyclo[3.2.1]octan-3-yl)propyl)-7-oxo-7H-benzo[h]pyrido[2,1-b]quinazoline-12-carboxamide; hydrochloride]	+ ((+) is associated with a pIC50 5.02 to 5.8)
O=C(NCCO)c1cccn2c(=O)c3ccc4ccccc4c3nc12 [Example 32, N-(2-hydroxyethyl)-7-oxo-7H-benzo[h]pyrido[2,1-b]quinazoline-12-carboxamide; hydrochloride]	+ ((+) is associated with a pIC50 5.02 to 5.8)
O=C(NCCN1CC[C@@H](F)C1)c1cccn2c(=O)c3ccc4ccccc4c3nc12 [Example 25, (R)-N-(2-(3-fluoropyrrolidin-1-yl)ethyl)-7-oxo-7H-benzo[h]pyrido[2,1-b]quinazoline-12-carboxamide hydrochloride]	+ ((+) is associated with a pIC50 5.02 to 5.8)
O=C(NCCCN1CC[C@@H](O)C1)c1cccn2c(=O)c3ccc4ccccc4c3nc12 [Example 40, (R)-N-(3-(3-hydroxypyrrolidin-1-yl)propyl)-7-oxo-7H-benzo[h]pyrido[2,1-b]quinazoline-12-carboxamide; hydrochloride]	+ ((+) is associated with a pIC50 5.02 to 5.8)
CN(C)CCCNC(=O)c1cccn2c(=O)c3ccc4ccccc4c3nc12 [Example 38, N-(3-(dimethylamino)propyl)-7-oxo-7H-benzo[h]pyrido[2,1-b]quinazoline-12-carboxamide; hydrochloride]	+ ((+) is associated with a pIC50 5.02 to 5.8)
O=C(NCCCN1CC[C@H](O)C1)c1cccn2c(=O)c3ccc4ccccc4c3nc12 [Example 39, (S)-N-(3-(3-hydroxypyrrolidin-1-yl)propyl)-7-oxo-7H-benzo[h]pyrido[2,1-b]quinazoline-12-carboxamide hydrochloride]	+ ((+) is associated with a pIC50 5.02 to 5.8)
